One experiment has as its system C. neoformans infection. The arrangement: method as in PMID 34203688. The note with it: treated mice; cited from earlier work.
Experiment [1] concerns Cryptococcus neoformans (ATCC 32045). Nature of the experiment: Minimum inhibitory concentration assay, broth microdilution. It counts as cell-based. The note with it: YPD, 10^6 cells mL^−1, peptides 50 to 0.004 µg mL^−1, 24 h, absorbance 600 nm, ND = MIC50 not reached, three independent experiments. For orientation: In broth dilution the organism is exposed to a series of concentrations in liquid medium.

In experiment [2] the test system is laccase from C. neoformans. The note with it: cited from earlier work.

Molecules are shown by their SMILES. ≈ marks a conversion by molar mass, not a printed value.

For `OC(Cn1cncn1)(Cn1cncn1)c1ccc(F)cc1F` [fluconazole], in the experiment on C. neoformans infection, the “survival rate toward C. neoformans infection” value was 20%.
Broadly, the MIC50 is the lowest concentration that inhibits either 50% of growth or 50% of the strains tested, depending on the study. Take `CCC(C)n1ncn(-c2ccc(N3CCN(c4ccc(OCC5COC(Cn6cncn6)(c6ccc(Cl)cc6Cl)O5)cc4)CC3)cc2)c1=O` (centres unmarked) [Itraconazole]: in experiment [1] (Cryptococcus neoformans, ATCC32045, concentration required to inhibit 50% of yeast growth, read-out: MIC50 against C. neoformans), the MIC50 amounted to 500 µg/mL (≈ 709 µM).
In the case of `C[C@@H]1[C@H](O)[C@@H](C)/C=C/C=C/CC/C=C/C=C/C=C/C=C/C(O[C@H]2O[C@H](C)[C@@H](O)[C@H](N)[C@@H]2O)CC2O[C@](O)(CC(O)C(O)CCC(O)CC(O)CC(O)CC(=O)O[C@H]1C)CC(O)C2C(=O)O` (some centres unmarked) [Nystatin], the “MIC50 against C. neoformans” value in experiment [1] (concentration required to inhibit 50% of yeast growth) was 250 µg/mL (≈ 270 µM).
For the compound `O=c1oc2c(O)c(O)cc3c(=O)oc4c(O)c(O)cc1c4c23` [EA, Ellagic acid], the “survival rate toward C. neoformans infection” value in the experiment with C. neoformans infection is on record as 70%. For the same compound, in experiment [2], the “inhibition of laccase from C. neoformans” value was “interacts and inhibits the laccase”.

These data come from PMC9416200, “Antifungal Potential of Synthetic Peptides against Cryptococcus neoformans: Mechanism of Action Studies Reveal Synthetic Peptides Induce Membrane–Pore Formation, DNA Degradation, and Apoptosis” (Pharmaceutics, 2022).
